The values that follow come from patent US20260193271A1, “PAN-KRAS INHIBITOR COMPOUND” (ADLAI NORTYE BIOPHARMA CO., LTD., priority 2022, published 2026).

For one test, the system named is AsPC-1 (G12D). As to the kind of experiment: In vitro cell proliferation inhibition test (CellTiter-Glo), AsPC-1. Conditions: Homo sapiens, ASPC1, AsPC-1 pancreas cell line, KRAS (p.G12D), 72 h co-incubation. The format is cell-based. From the text: (§1) Test Example 1: In Vitro Cell Proliferation Inhibition Test
(§2) Due to the diversity of RAS mutations and in order to evaluate the activity of compounds in different RAS mutation cell lines, we selected KRAS^WT, KRAS^G12C, KRAS^G12D, KRAS^G12V and BRAF mutation cell lines (see the table below) for in vitro activity evaluation and screening of compounds.
(§3) Protocol: CellTiter-Glo® Cell Luminescent Viability Assay (Promega)
(§4) According to the doubling time of different cell lines, different numbers of cells (1000-5000 cells/well) were seeded in 96-well plates containing 180 μl of corresponding culture medium and cultured overnight in a cell culture incubator at 37° C. with 5% CO2. On the second day, the test compound was pre-diluted 3-fold with culture medium, with the highest concentration being 100 μM, for a total of 10 concentration gradients; then 20 μl of culture medium containing different concentrations of the compound was added to the cells in the 96-well plate to ensure that the final concentration of the compound was up to 10 μM, with 10 concentration gradients of 3-fold dilution. After the cells and compounds were co-incubated for 72 h, the 96-well plate was removed from the incubator and equilibrated at room temperature for 30 min. Then, 25 μl of CellTiter-Glo® Reagent was added to each well and mixed thoroughly. The mixture was incubated at room temperature for 10 min, and then 100 μl of the sample was transferred to a white 96-well plate (OptiPlate™-96, PerkinElmer). The […] signal value was read using a multi-function microplate reader (SpectraMax® i3x, Molecular devices). The signal values were then standardized, and the curve was fitted using a four-parameter regression equation to calculate the half maximal inhibitory concentration (IC50) of the compound on the cell line.
On the technique in general: Cellular ATP, detected with luciferase, serves as a proxy for viable cell number.

A further test concerns SW480 (G12V). As to the kind of experiment: In vitro cell proliferation inhibition test (CellTiter-Glo), SW480. Conditions: Homo sapiens, SW480 colon cell line, KRAS (p.G12V), 72 h co-incubation. The test is classed as cell-based.
Description: as §1, §2, §3, §4

For orientation: IC50 means the concentration that gives 50% inhibition. `CCn1c(-c2cc(-c3ccc(CN4CCN(C)CC4)cc3)cnc2[C@H](C)OC)c2c3cc(ccc31)-c1csc(n1)C[C@H](NC(=O)[C@H]1C[C@@H]1C)C(=O)N1CCC[C@H](N1)C(=O)OCC(C)(C)C2` (atropisomer, axis not shown) [Compound 8, (1S,2S)-N-((6^3S,4S,Z)-1^1-ethyl-1^2-(2-((S)-1-methoxyethyl)-5-(4-((4-methylpiperazin-1-yl)methyl)phenyl)pyridin-3-yl)-10,10-dimethyl-5,7-dioxo-6^1,6^2,6^3,6^4,6^5,6^6-hexahydro-1^1H-8-oxa-2(4,2)-thiazola-1(5,3)-indola-6(1,3)-pyridazinacycloundecaphane-4-yl)-2-methylcyclopropane-1-carboxamide]: the IC50 with AsPC-1 (G12D) was 0.7 nM; with SW480 (G12V), 1.4 nM.

Take `CCn1c(-c2cc(-c3cccc(CN4CCOCC4)c3)cnc2[C@H](C)OC)c2c3cc(ccc31)-c1csc(n1)C[C@H](NC(=O)[C@H]1C[C@@H]1C)C(=O)N1CCC[C@H](N1)C(=O)OCC(C)(C)C2` (atropisomer, axis not shown) [Compound 9, (1S,2S)-N-((6^3S,4S,Z)-1^1-ethyl-1^2-(2-((S)-1-methoxyethyl)-5-(3-(morpholinomethyl)phenyl)pyridin-3-yl)-10,10-dimethyl-5,7-dioxo-6^1,6^2,6^3,6^4,6^5,6^6-hexahydro-1^1H-8-oxa-2(4,2)-thiazola-1(5,3)-indola-6(1,3)-pyridazinacycloundecaphane-4-yl)-2-methylcyclopropane-1-carboxamide]: the half-inhibitory concentration (IC50) with AsPC-1 (G12D) was 3.5 nM; in the test with SW480 (G12V) it was 18 nM.

`CCn1c(-c2cc(-c3ccc4c(c3)CN(C)CC4)cnc2[C@H](C)OC)c2c3cc(ccc31)-c1csc(n1)C[C@H](NC(=O)[C@H]1C[C@@H]1C)C(=O)N1CCC[C@H](N1)C(=O)OCC(C)(C)C2` (atropisomer, axis not shown) [Compound 10, (1S,2S)-N-((6^3S,4S,Z)-1^1-ethyl-1^2-(2-((S)-1-methoxyethyl)-5-(2-methyl-1,2,3,4-tetrahydroisoquinolin-7-yl)pyridin-3-yl)-10,10-dimethyl-5,7-dioxo-6^1,6^2,6^3,6^4,6^5,6^6-hexahydro-1^1H-8-oxa-2(4,2)-thiazola-1(5,3)-indola-6(1,3)-pyridazinacycloundecaphane-4-yl)-2-methylcyclopropane-1-carboxamide]: the IC50 turned out to be 18 nM with AsPC-1 (G12D) and 0.5 nM with SW480 (G12V).

Consider `CCn1c(-c2cc(-c3cc(CN4CCOCC4)ccn3)cnc2[C@H](C)OC)c2c3cc(ccc31)-c1csc(n1)C[C@H](NC(=O)[C@H]1C[C@@H]1C)C(=O)N1CCC[C@H](N1)C(=O)OCC(C)(C)C2` (atropisomer, axis not shown) [Compound 11, (1S,2S)-N-((6^3S,4S,Z)-1^1-ethyl-1^2-(6′-((S)-1-methoxyethyl)-4-(morpholinomethyl)-[2,3′-bipyridin]-5′-yl)-10,10-dimethyl-5,7-dioxo-6^1,6^2,6^3,6^4,6^5,6^6-hexahydro-1^1H-8-oxa-2(4,2)-thiazola-1(5,3)-indola-6(1,3)-pyridazinacycloundecaphane-4-yl)-2-methylcyclopropane-1-carboxamide], for which the IC50 in the test on AsPC-1 (G12D) came out at 2.1 nM; in the test on SW480 (G12V) it was 3.2 nM.

Turning to `CCn1c(-c2cc(-c3ccc(CN4CCOCC4)cn3)cnc2[C@H](C)OC)c2c3cc(ccc31)-c1csc(n1)C[C@H](NC(=O)[C@H]1C[C@@H]1C)C(=O)N1CCC[C@H](N1)C(=O)OCC(C)(C)C2` (atropisomer, axis not shown) [Compound 12, (1S,2S)-N-((6^3S,4S,Z)-1^1-ethyl-1^2-(6′-((S)-1-methoxyethyl)-5-(morpholinomethyl)-[2,3′-bipyridin]-5′-yl)-10,10-dimethyl-5,7-dioxo-6^1,6^2,6^3,6^4,6^5,6^6-hexahydro-1^1H-8-oxa-2(4,2)-thiazola-1(5,3)-indola-6(1,3)-pyridazinacycloundecaphane-4-yl)-2-methylcyclopropane-1-carboxamide], the IC50 in the test with AsPC-1 (G12D) was determined as 16 nM; with SW480 (G12V) it was 6.6 nM.

Take `CCn1c(-c2cc(-c3cnn(CCN4CCOCC4)c3)cnc2[C@H](C)OC)c2c3cc(ccc31)-c1csc(n1)C[C@H](NC(=O)[C@H]1C[C@@H]1C)C(=O)N1CCC[C@H](N1)C(=O)OCC(C)(C)C2` (atropisomer, axis not shown) [Compound 15, (1S,2S)-N-((6^3S,4S,Z)-1^1-ethyl-1^2-(2-((S)-1-methoxyethyl)-5-(1-(2-morpholinoethyl)-1H-pyrazol-4-yl)pyridin-3-yl)-10,10-dimethyl-5,7-dioxo-6^1,6^2,6^3,6^4,6^5,6^6-hexahydro-1^1H-8-oxa-2(4,2)-thiazola-1(5,3)-indola-6(1,3)-pyridazinacycloundecaphane-4-yl)-2-methylcyclopropane-1-carboxamide]: the IC50 came to 3 nM in the test with AsPC-1 (G12D) and 6 nM in the test with SW480 (G12V).

As to `CCn1c(-c2cc(-c3cnn([C@@H]4CCN(C)C4)c3)cnc2[C@H](C)OC)c2c3cc(ccc31)-c1csc(n1)C[C@H](NC(=O)[C@H]1C[C@@H]1C)C(=O)N1CCC[C@H](N1)C(=O)OCC(C)(C)C2` (atropisomer, axis not shown) [Compound 16, (1S,2S)-N-((6^3S,4S,Z)-1^1-ethyl-1^2-(2-((S)-1-methoxyethyl)-5-(1-((R)-1-methylpyrrolidin-3-yl)-1H-pyrazol-4-yl)pyridin-3-yl)-10,10-dimethyl-5,7-dioxo-6^1,6^2,6^3,6^4,6^5,6^6-hexahydro-1^1H-8-oxa-2(4,2)-thiazola-1(5,3)-indola-6(1,3)-pyridazinacycloundecaphane-4-yl)-2-methylcyclopropane-1-carboxamide], the figures for the IC50 in the test with AsPC-1 (G12D) and in the test on SW480 (G12V) were 1.6 nM and 7.9 nM, respectively.

As for `CCn1c(-c2cc(-c3cnn(C4CN(C)C4)c3)cnc2[C@H](C)OC)c2c3cc(ccc31)-c1csc(n1)C[C@H](NC(=O)[C@H]1[C@H](C)[C@@H]1C)C(=O)N1CCC[C@H](N1)C(=O)OCC(C)(C)C2` (atropisomer, axis not shown) [Compound 17, (1r,2R,3S)-N-((6^3S,4S,Z)-1^1-ethyl-1^2-(2-((S)-1-methoxyethyl)-5-(1-(1-methylazetidin-3-yl)-1H-pyrazol-4-yl)pyridin-3-yl)-10,10-dimethyl-5,7-dioxo-6^1,6^2,6^3,6^4,6^5,6^6-hexahydro-1^1H-8-oxa-2(4,2)-thiazola-1(5,3)-indola-6(1,3)-pyridazinacycloundecaphane-4-yl)-2,3-dimethylcyclopropane-1-carboxamide], the IC50 was 0.31 nM in the test on AsPC-1 (G12D) and 2.5 nM with SW480 (G12V).

For the compound `CCn1c(-c2cc(-c3cnn(C4CCN(C)CC4)c3)cnc2[C@H](C)OC)c2c3cc(ccc31)-c1csc(n1)C[C@H](NC(=O)[C@H]1[C@H](C)[C@@H]1C)C(=O)N1CCC[C@H](N1)C(=O)OCC(C)(C)C2` (atropisomer, axis not shown) [Compound 18, (1r,2R,3S)-N-((6^3S,4S,Z)-1^1-ethyl-1^2-(2-((S)-1-methoxyethyl)-5-(1-(1-methylpiperidin-4-yl)-1H-pyrazol-4-yl)pyridin-3-yl)-10,10-dimethyl-5,7-dioxo-6^1,6^2,6^3,6^4,6^5,6^6-hexahydro-1^1H-8-oxa-2(4,2)-thiazola-1(5,3)-indola-6(1,3)-pyridazinacycloundecaphane-4-yl)-2,3-dimethylcyclopropane-1-carboxamide], the IC50 amounted to 0.45 nM with AsPC-1 (G12D) and 1.4 nM with SW480 (G12V).

For the compound `CCn1c(-c2cc(-c3cnn(CCN4CCN(C)CC4)c3)cnc2[C@H](C)OC)c2c3cc(ccc31)-c1csc(n1)C[C@H](NC(=O)[C@H]1[C@H](C)[C@@H]1C)C(=O)N1CCC[C@H](N1)C(=O)OCC(C)(C)C2` (atropisomer, axis not shown) [Compound 19, (1r,2R,3S)-N-((6^3S,4S,Z)-1^1-ethyl-1^2-(2-((S)-1-methoxyethyl)-5-(1-(2-(4-methylpiperazin-1-yl)ethyl)-1H-pyrazol-4-yl)pyridin-3-yl)-10,10-dimethyl-5,7-dioxo-6^1,6^2,6^3,6^4,6^5,6^6-hexahydro-1^1H-8-oxa-2(4,2)-thiazola-1(5,3)-indola-6(1,3)-pyridazinacycloundecaphane-4-yl)-2,3-dimethylcyclopropane-1-carboxamide], the IC50 with AsPC-1 (G12D) was determined as 0.57 nM; in the test on SW480 (G12V) it was 4.5 nM.

For the compound `CCn1c(-c2cc(-c3nc(C)n(C)n3)cnc2[C@H](C)OC)c2c3cc(ccc31)-c1csc(n1)C[C@H](NC(=O)[C@H]1C[C@@H]1C)C(=O)N1CCC[C@H](N1)C(=O)OCC(C)(C)C2` (atropisomer, axis not shown) [Compound 20, (1S,2S)-N-((6^3S,4S,Z)-1^2-(5-(4,5-dimethyl-4H-1,2,4-triazol-3-yl)-2-((S)-1-methoxyethyl)pyridin-3-yl)-1^1-ethyl-10,10-dimethyl-5,7-dioxo-6^1,6^2,6^3,6^4,6^5,6^6-hexahydro-1^1H-8-oxa-2(4,2)-thiazola-1(5,3)-indola-6(1,3)-pyridazinacycloundecaphane-4-yl)-2-methylcyclopropane-1-carboxamide], the IC50 is 3.4 nM in the test on AsPC-1 (G12D) and 3 nM in the test with SW480 (G12V).
